Here are results for nine compounds from US20120065066A1, “NOVEL HERBICIDES” (SYNGENTA CROP PROTECTION LLC, priority 2009, published 2012).

Assay type in all cases: in vivo
The test system of test [1] is Setaria faberi (SETFA). The test can be described thus: Test Example B, pre-emergence herbicidal test. Conditions: 250 g/ha, evaluated after 13 days, 100=total damage to plant, 0=no damage to plant. In a few lines: (§1)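 Seeds sown in standard soil and sprayed 1 day after sowing with compound formulated in acetone/water (50:50) with 0.5% Tween 20. Plants grown in a glasshouse at 24/16 °C day/night, 14 h light, 65% humidity. Damage scored after 13 days on a 0–100 scale (100 = total damage).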

The test system of test [2] is Echinochloa crus-galli (ECHCG). The test can be described thus: Test Example B, pre-emergence herbicidal test. Conditions: 312 h, evaluated after 13 days, 100=total damage to plant, 0=no damage to plant. In a few lines:
as §1

Test [3] concerns Alopecurus myosuroides (ALOMY). The test can be described thus: Test Example B, pre-emergence herbicidal test. Particulars: 312 h, evaluated after 13 days, 100=total damage to plant, 0=no damage to plant. In a few lines: as §1
In test [4] the test system is Avena fatua (AVEFA). The test can be described thus: Test Example B, pre-emergence herbicidal test. Particulars: 312 h, evaluated after 13 days, 100=total damage to plant, 0=no damage to plant. In a few lines: as §1
In test [5] the test system is Setaria faberi (SETFA). The test can be described thus: Test Example B, post-emergence herbicidal test. Conditions: 250 g/ha, evaluated after 13 days, 100=total damage to plant, 0=no damage to plant. In a few lines: (§2)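 Pot-grown plants were sprayed 8 days after sowing with active ingredient in acetone/water (50:50) containing 0.5% Tween 20. Plants were kept in a glasshouse at 24/16 °C day/night, 14 h light and 65% humidity. Damage was scored 13 days later on a 0–100 scale, where 100 means total damage.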

Test [6] concerns Echinochloa crus-galli (ECHCG). The test can be described thus: Test Example B, post-emergence herbicidal test. Conditions: 312 h, evaluated after 13 days, 100=total damage to plant, 0=no damage to plant. The gist of the method: as §2
Test [7] deals with Alopecurus myosuroides (ALOMY). The test can be described thus: Test Example B, post-emergence herbicidal test. Conditions: 312 h, evaluated after 13 days, 100=total damage to plant, 0=no damage to plant. The gist of the method:
as §2

The subject of test [8] is Avena fatua (AVEFA). The test can be described thus: Test Example B, post-emergence herbicidal test. Particulars: 312 h, evaluated after 13 days, 100=total damage to plant, 0=no damage to plant. In a few lines: as §2
For test [9], the system named is Setaria faberi (SETFA). The test can be described thus: Test Example 1, post-emergence herbicidal test. Conditions: 360 h, evaluated 15 days later, 100=total damage to plant, 0=no damage to plant, read-out: SEFTA damage to plant. The method, then:
(§3) Monocotyledonous and dicotyledonous test plants were sown in standard soil in pots. After cultivation for one day (pre-emergence) or after 10 days cultivation (post-emergence) under controlled conditions in a glasshouse, the plants were sprayed with an aqueous spray solution derived from the formulation of the technical active ingredient in 0.6 ml acetone and 45 ml formulation solution containing 10.6% Emulsogen EL (Registry number 61791-12-6), 42.2% N-methylpyrrolidone, 42.2% dipropylene glycol monomethyl ether (Registry number 34590-94-8) and 0.2% X-77 (Registry number 11097-66-8). The test plants were then grown in a greenhouse under optimum conditions until, 15 days later for post-emergence and 20 days for pre-emergence, the test was evaluated (100=total damage to plant; 0=no damage to plant). Test Plants: Lolium perenne (LOLPE), Setaria faberi (SETFA), Digitaria sanguinalis (DIGSA), Alopecurus myosuroides (ALOMY), Echinochloa crus-galli (ECHCG) and Avena fatua (AVEFA), Post-Emergence Data: […]

The test system of test [10] is Echinochloa crus-galli (ECHCG). The test can be described thus: Test Example 1, post-emergence herbicidal test. Conditions: 360 h, evaluated 15 days later, 100=total damage to plant, 0=no damage to plant. How it is done:
as §3

Test [11] has as its system Digitaria sanguinalis (DIGSA). The test can be described thus: Test Example 1, post-emergence herbicidal test. Particulars: 360 h, evaluated 15 days later, 100=total damage to plant, 0=no damage to plant. How it is done: as §3
The test system of test [12] is Alopecurus myosuroides (ALOMY). The test can be described thus: Test Example 1, post-emergence herbicidal test. Conditions: 360 h, evaluated 15 days later, 100=total damage to plant, 0=no damage to plant. The method, then:
as §3

Test [13] concerns Lolium perenne (LOLPE). The test can be described thus: Test Example 1, post-emergence herbicidal test. Particulars: 360 h, evaluated 15 days later, 100=total damage to plant, 0=no damage to plant. How it is done:
as §3

For test [14], the system named is Avena fatua (AVEFA). The test can be described thus: Test Example 1, post-emergence herbicidal test. Particulars: 360 h, evaluated 15 days later, 100=total damage to plant, 0=no damage to plant. How it is done: as §3
Test [15] relates to Setaria faberi (SETFA). The test can be described thus: Test Example 1, pre-emergence herbicidal test. Conditions: 480 h, evaluated 20 days later, 100=total damage to plant, 0=no damage to plant, read-out: SEFTA damage to plant. How it is done:
as §3, with “Pre-Emergence” for “Post-Emergence”

In test [16] the test system is Echinochloa crus-galli (ECHCG). The test can be described thus: Test Example 1, pre-emergence herbicidal test. Conditions: 480 h, evaluated 20 days later, 100=total damage to plant, 0=no damage to plant. How it is done:
as §3, with “Pre-Emergence” for “Post-Emergence”

For test [17], the system named is Digitaria sanguinalis (DIGSA). The test can be described thus: Test Example 1, pre-emergence herbicidal test. Conditions: 480 h, evaluated 20 days later, 100=total damage to plant, 0=no damage to plant. How it is done:
as §3, with “Pre-Emergence” for “Post-Emergence”

Test [18] relates to Alopecurus myosuroides (ALOMY). The test can be described thus: Test Example 1, pre-emergence herbicidal test. Conditions: 480 h, evaluated 20 days later, 100=total damage to plant, 0=no damage to plant. The method, then: as §3, with “Pre-Emergence” for “Post-Emergence”
In test [19] the test system is Lolium perenne (LOLPE). The test can be described thus: Test Example 1, pre-emergence herbicidal test. Particulars: 480 h, evaluated 20 days later, 100=total damage to plant, 0=no damage to plant. How it is done:
as §3, with “Pre-Emergence” for “Post-Emergence”

Test [20] concerns Avena fatua (AVEFA). The test can be described thus: Test Example 1, pre-emergence herbicidal test. Particulars: 480 h, evaluated 20 days later, 100=total damage to plant, 0=no damage to plant. The method, then:
as §3, with “Pre-Emergence” for “Post-Emergence”

Take `CO/N=C1/C[C@H]2CC[C@@H]1[C@H]1C(=O)C(c3c(C)cc(C)cc3C)=C(O)[C@@H]21` [Compound T59]: the “SETFA damage to plant” value in the test on Setaria faberi (SETFA) [1] and with Setaria faberi (SETFA) [5] was 80 in each case. Also, the pest or weed control at 250 g/ha in [2] is 80%; in test [3], 90%; in the test on Avena fatua (AVEFA) [4], 30%; in test [6], 50%; in [7] it was 30%; in the test on Avena fatua (AVEFA) [8], 0%.
For the compound `CCc1ccc(-c2ccc(Cl)cc2)cc1C1=C(O)[C@H]2[C@@H]3CC[C@@H](C(=NOC)C3)[C@H]2C1=O` (racemic) [Compound T9, rac-(3aS,4R,7R,7aR)-2-(4′-chloro-4-ethylbiphenyl-3-yl)hexahydro-4,7-ethanoindene-1,3,8-trione 8-(O-methyloxime)], the “SETFA damage to plant” value came out at 0 in the test with Setaria faberi (SETFA) [1] and 100 in the test with Setaria faberi (SETFA) [5]. For the same compound, the pest or weed control at 250 g/ha in [2] stood at 0%; in [3], 0%; with Avena fatua (AVEFA) [4] it was 0%; in [6], 90%; in test [7], 70%; in the test on Avena fatua (AVEFA) [8], 60%.
As for `CCc1cc(C)cc(CC)c1C1=C(O)[C@H]2[C@H]3CC[C@](OC)(CC3)[C@H]2C1=O` [Compound T57], the “SETFA damage to plant” value in the test with Setaria faberi (SETFA) [1] and in the test with Setaria faberi (SETFA) [5] was 100 throughout. Besides, the pest or weed control at 250 g/ha in test [2] is 100%; in test [3] it was 100%; in the test on Avena fatua (AVEFA) [4] it was 100%; in test [6], 100%; in [7], 70%; with Avena fatua (AVEFA) [8], 30%.
Turning to `CCc1ccc(-c2ccc(Cl)cc2)cc1C1=C(O)[C@H]2C3CCC(C3=C(C)C)[C@H]2C1=O` (some centres unmarked) [Compound T21], the pest or weed control at 125 g/ha in the test with Setaria faberi (SETFA) [9] turned out to be 20%; in [10], 0%; in test [11], 20%; in [12], 20%; in the test with Lolium perenne (LOLPE) [13] it was 0%; in the test with Avena fatua (AVEFA) [14], 20%. The pest or weed control at 250 g/ha worked out at 60% with Setaria faberi (SETFA) [15]; 30% in [16]; 50% in test [17]; 60% in test [18]; 40% in the test on Lolium perenne (LOLPE) [19]; 20% in the test with Avena fatua (AVEFA) [20].
Turning to `CCc1ccc(-c2ccc(Cl)cc2)cc1C1=C(O)[C@H]2[C@H]3C=C[C@](OC)(CC3)[C@H]2C1=O` (racemic) [Compound T8, rac-(3aS,4R,7R,7aS)-2-(4′-chloro-4-ethylbiphenyl-3-yl)-4-methoxy-3a,4,7,7a-tetrahydro-4,7-ethanoindene-1,3-dione], the pest or weed control at 125 g/ha in the test on Setaria faberi (SETFA) [9] was 80%; in [10] it was 100%; in test [11], 100%; in test [12], 70%; in the test with Lolium perenne (LOLPE) [13], 0%; in the test with Avena fatua (AVEFA) [14] it was 10%. Also, the pest or weed control at 250 g/ha was 90% with Setaria faberi (SETFA) [15]; 100% in test [16]; 100% in test [17]; 60% in test [18]; 70% with Lolium perenne (LOLPE) [19]; 10% with Avena fatua (AVEFA) [20].
For the compound `Cc1cc(C)c(C2=C(O)[C@H]3[C@H]4CC[C@H](C4)[C@H]3C2=O)c(C)c1` (racemic) [Compound T50, rac-(5S,6S,7R)-2-(2,4,6-trimethylphenyl)hexahydro-4,7-methanoindene-1,3-dione], the pest or weed control at 125 g/ha with Setaria faberi (SETFA) [9] worked out at 0%; in [10], 20%; in test [11], 30%; in test [12], 30%; in the test with Lolium perenne (LOLPE) [13], 30%; with Avena fatua (AVEFA) [14], 10%. Also, the pest or weed control at 250 g/ha came to 100% with Setaria faberi (SETFA) [15]; 70% in [16]; 80% in test [17]; 70% in test [18]; 100% with Lolium perenne (LOLPE) [19]; 50% in the test with Avena fatua (AVEFA) [20].
`CCc1ccc(-c2ccc(Cl)cc2)cc1C1=C(O)[C@H]2[C@@H]3CC[C@@H](C(=O)C3)[C@H]2C1=O` (racemic) [Compound T7, rac-(3aS,4R,7R,7aR)-2-(4′-chloro-4-ethylbiphenyl-3-yl)hexahydro-4,7-ethanoindene-1,3,8-trione]: the “SETFA damage to plant” value in the test on Setaria faberi (SETFA) [1] is 90; with Setaria faberi (SETFA) [5], 60. In addition, the pest or weed control at 250 g/ha was 100% in test [2]; 90% in test [3]; 70% with Avena fatua (AVEFA) [4]; 20% in [6]; 20% in [7]; 20% with Avena fatua (AVEFA) [8].
`CCc1cc(C)cc(CC)c1C1=C(O)[C@@H]2[C@H](C1=O)[C@H]1CC[C@@H]2C1=C(C)C` [Compound T52]: the pest or weed control at 125 g/ha stood at 80% in the test with Setaria faberi (SETFA) [9]; 80% in test [10]; 70% in [11]; 90% in test [12]; 50% in the test on Lolium perenne (LOLPE) [13]; 20% in the test on Avena fatua (AVEFA) [14]. Besides, the pest or weed control at 250 g/ha amounted to 100% with Setaria faberi (SETFA) [15]; 90% in test [16]; 80% in test [17]; 50% in test [18]; 70% with Lolium perenne (LOLPE) [19]; 60% in the test with Avena fatua (AVEFA) [20].
With `CCc1cc(C)cc(CC)c1C1=C(O)[C@H]2[C@H]3CC[C@H](C3)[C@H]2C1=O` [Compound T49], the pest or weed control at 125 g/ha in the test with Setaria faberi (SETFA) [9] stood at 100%; in test [10], 100%; in [11], 100%; in test [12] it was 100%; in the test with Lolium perenne (LOLPE) [13], 100%; with Avena fatua (AVEFA) [14], 80%. Further, the pest or weed control at 250 g/ha with Setaria faberi (SETFA) [15] is 100%; in [16], 100%; in [17], 100%; in test [18], 100%; in the test with Lolium perenne (LOLPE) [19], 100%; with Avena fatua (AVEFA) [20], 70%.
